Experimental data published in patent US20040235717A1, “Suppression of androgen receptor transactivation through new pathways to ar and ar coactivators and repressors” (priority 2001, published 2004).
Entries after “also recorded” stand apart in the source; their conditions may differ.

What was measured:
Type in all cases: cell-based
[1] = target: T1, interaction between AR and ARA70 (Homo sapiens, UniProt P10275); assay: Mammalian two-hybrid assay GAL4-ARA70 / VP16-AR in DU145 cells (pG5CAT); settings: 1 nM DHT
T1 construct: VP16 fused to the AR aa 36-918 (VP16-AR); expressed in transfected cells; host or cells: DU145
T1 sequence (P10275 36-920): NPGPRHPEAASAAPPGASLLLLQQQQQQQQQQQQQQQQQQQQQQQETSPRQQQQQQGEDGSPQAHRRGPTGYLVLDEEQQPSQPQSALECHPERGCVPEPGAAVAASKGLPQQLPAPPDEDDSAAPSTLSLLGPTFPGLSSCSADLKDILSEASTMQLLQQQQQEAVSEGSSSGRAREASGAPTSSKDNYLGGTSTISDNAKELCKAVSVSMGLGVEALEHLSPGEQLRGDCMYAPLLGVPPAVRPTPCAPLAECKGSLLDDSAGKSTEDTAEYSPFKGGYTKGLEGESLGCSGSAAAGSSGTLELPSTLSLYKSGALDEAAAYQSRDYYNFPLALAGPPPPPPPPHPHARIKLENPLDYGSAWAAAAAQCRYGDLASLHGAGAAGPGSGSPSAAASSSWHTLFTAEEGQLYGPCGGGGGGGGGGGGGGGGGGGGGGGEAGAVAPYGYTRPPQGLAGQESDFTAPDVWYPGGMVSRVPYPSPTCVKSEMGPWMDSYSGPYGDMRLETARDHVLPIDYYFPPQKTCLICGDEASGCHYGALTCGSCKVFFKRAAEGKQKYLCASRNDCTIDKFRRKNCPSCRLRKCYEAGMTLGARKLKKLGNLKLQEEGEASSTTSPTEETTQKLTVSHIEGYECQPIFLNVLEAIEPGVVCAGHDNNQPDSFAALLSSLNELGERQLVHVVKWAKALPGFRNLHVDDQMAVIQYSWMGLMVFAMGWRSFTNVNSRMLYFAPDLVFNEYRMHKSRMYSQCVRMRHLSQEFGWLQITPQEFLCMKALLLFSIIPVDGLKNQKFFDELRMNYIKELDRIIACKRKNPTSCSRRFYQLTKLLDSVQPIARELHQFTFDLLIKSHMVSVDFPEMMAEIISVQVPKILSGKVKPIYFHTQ
Description: 257. […] Onate, S. A. et al., Science 270, 1354-1357 (1995); Voegel, J. J. et al., EMBO J. 15, 3667-3675 (1996); Yeh, S. et al., Proc. Natl. Acad. Sci. USA 93, 5517-5521(1996); Yeh, S. et al., Proc. Natl. Acad. Sci. USA 95, 5527-5532 (1998); Fujimoto, N. et al., J. BioI. Chem. 274, 8316-8321 (1999); Miyamoto, H. et al., Proc. Natl. Acad. Sci. USA 95 11083-11088 (1998); Kang, H. Y. et al., J. BioI. Chem. 274, 8570-8576 (1999); Yeh, S. et al., Biochem. Biophys. Res. Commun. 248, 361-367 (1998). […] Yeh, S. et al., Proc. Natl. Acad. Sci. USA 93, 5517-5521(1996); Yeh, S. et al., Proc. Natl. Acad. Sci. USA 95, 5527-5532 (1998). […] The interaction between AR and ARA70 was determined by CAT assay using pG5CAT as reporter. […] In contrast, the addition of […] between the AR and ARA70 (FIG. 4a, lane 2 vs 5 and lane 6 vs 8). Similar repression effects also occurred when we replaced ARA70 with other AR coactivators, such as ARA54 or TIF2. Kang, H. Y. et al., J. BioI. Chem. 274, 8570-8576 (1999); Voegel, J. J. et al., EMBO J. 15, 3667-3675 (1996). cAkt and dAkt, however, had very little effect on the interaction between GAL4 fused AR-LBD653-918 and VP16-ARA 70 (VP16 fused ARA70), VP16-ARA54, or VP16-TIF2.
GAL4DBD fused to ARA70 aa 176-401 (GAL4-ARA70), and VP16 fused to the AR aa 36-918 (VP16-AR) were transfected into DU145 cells in the presence or absence of cAkt, dAkt, and LY294002.

AR transactivation = assay: AR transactivation, MMTV-luc / (ARE)4-luc luciferase reporter assay; settings: LNCaP; MMTV-luc and (ARE)4-luc; 10 nM DHT
Akt = Akt activity in LNCaP cells, Western blot with phospho-Akt (Ser473) antibody; settings: LNCaP cells stably transfected with dAkt
Procedure: 18. […] (A) Akt suppressed androgen/AR-induced p21 promoter activity. […] (B) Androgen/AR-induced PC-3(AR)6 apoptosis and p21 protein expression was blocked by Akt PC-3(AR)6 was transfected with pCDNA3, cAkt, or dAkt, as indicated, for 16 h. […] (C) AR-induced p21 protein expression was enhanced by dAkt in LNCaP cells. […] LNCaP stable transfection with dAkt was confirmed by western blot assay using phospho-Akt (Ser473) antibody. […] TPA was then added for another 24 h and cell apoptosis was determined by TUNEL assay. […] IGF-1 was added for another 30 min, followed by 10 nM TPA treatment for another 24 h. The apoptosis was determined by TUNEL assay. The data are means±s.d. from three independent experiments.
31. […] (D) The LNCaP cells were transfected with plasmids as indicated for 16 h, and the medium was changed to 0.1% CDS media for 2 days. The cell apoptosis was determined by TUNEL assay (E) The LNCaP cells were transfected with plasmids as indicated for 16 h, harvested, and the cell extracts were subjected to SDS-PAGE. The Akt activity was determined by Western blotting using phospho(S473)-Akt antibody. (F) The U87MG cells were transfected with plasmids as indicated for 16 h, and the medium was changed 0.1% CDS media for 2 days. The cell apoptosis was determined by TUNEL assay. Data for luciferase activity and apoptosis are means±s.d. from three independent experiments.

## dAkt: dominant-negative Akt, a kinase deficient mutant, K179A
[1]
  Interaction between AR and ARA70 (CAT activity): further enhanced the interaction of AR and ARA70; also recorded: further enhanced the interaction between the AR and ARA70
AR transactivation
  Effect on AR transactivation: enhanced AR transactivation in both MMTV-Luc and (ARE)4-Luc
Akt
  Reduction in Akt activity: 50%
